The values that follow come from patent US20250282827A1, “LIPIDATED POLYMYXIN ANALOGUES” (priority 2021, published 2025).

The subject of one test is E. coli ATCC MS8345. In kind it is cell-based, Escherichia coli. To be noted: ATCC MS8345. From the text: (§1) All 81 compounds prepared in Examples 2 and 3 underwent screening against a panel of Gram-negative bacterium to assess their ability to inhibit bacterial growth. […] The median value is presented.
Expansion of the polymyxin macrocycle by substituting […]) offered little advantage in antimicrobial activity but was generally well tolerated although for A. baumanni and P. aeruginosa this was detrimental.

The next test relates to A. baumannii ATCC 19606. The format is cell-based, Acinetobacter baumannii. The note with it: ATCC 19606.
Excerpt: as §1

Another test relates to E. coli ATCC 25922. In kind it is cell-based, Escherichia coli. The note with it: ATCC 25922.
Excerpt: as §1

The test system of a further test is P. aeruginosa ATCC 27853. In kind it is cell-based, Pseudomonas aeruginosa. To be noted: ATCC 27853.
Excerpt: as §1

In another test the test system is K. pneumoniae ATCC 33495. The format is cell-based, Klebsiella pneumoniae. The note with it: ATCC 33495.
Excerpt: as §1

Test [1] has as its system K. pneumoniae ATCC 700603. The format is cell-based, Klebsiella pneumoniae. The note with it: ATCC 700603.
Excerpt: as §1

The subject of test [2] is K. pneumoniae ATCC MS6671. The format is cell-based, Klebsiella pneumoniae. To be noted: ATCC MS6671.
Excerpt: as §1

In brackets after ≈: the same amount, converted by molar mass. Positions of bridges follow the written chain, without caps; N, C: chain ends. Non-standard residues stand in square brackets, D forms with d. Residues, ends and D or L forms follow the SMILES beside them. *: point of attachment. Ethyl(2-butanoyloxy) = CCCC(=O)OCC*; Ethyl(2-propionyloxy) = CCC(=O)OCC*; Ethyl(2-OPiv) = CC(C)(C)C(=O)OCC*; Dab = NCC[C@H](N)C(=O)O; X4 = CCCCCCCC(=O)OCC*; X7 = CC(C)CCC(=O)OCC* Some results are limits rather than exact numbers.

With `CCCCCCCC(=O)OCCSC[C@@H](N)C(=O)N[C@H](C(=O)N[C@@H](CCN)C(=O)N[C@H]1CCNC(=O)[C@H]([C@@H](C)O)NC(=O)[C@H](CCN)NC(=O)[C@H](CCN)NC(=O)[C@H](CC(C)C)NC(=O)[C@@H](Cc2ccccc2)NC(=O)[C@H](CCN)NC1=O)[C@@H](C)O` [Compound 92] (H-[dC](X4)T[Dab][Dab][Dab][dF]L[Dab][Dab]T; lactam 4-C), in the test with E. coli ATCC MS8345, the “MIC E. coli ATCC MS8345” value came to 16 µg/mL (≈ 12.9 µM). Moreover, the “MIC A. baumannii ATCC 19606” value in the test on A. baumannii ATCC 19606 came to 2 µg/mL (≈ 1.62 µM). Also, the “MIC E. coli ATCC 25922” value against E. coli ATCC 25922 was 1 µg/mL (≈ 0.809 µM). Also, in the test with P. aeruginosa ATCC 27853, the “MIC P. aeruginosa ATCC 27853” value was 2 µg/mL (≈ 1.62 µM). In the test on K. pneumoniae ATCC 33495, the “MIC K. pneumoniae ATCC 33495” value stood at 2 µg/mL (≈ 1.62 µM). Besides, the “MIC K. pneumoniae ATCC 700603” value in test [1] turned out to be 2 µg/mL (≈ 1.62 µM). Also, the “MIC K. pneumoniae ATCC MS6671” value in test [2] was above 32 µg/mL.
On to `CC(C)C[C@@H]1NC(=O)[C@@H](Cc2ccccc2)NC(=O)[C@H](CCN)NC(=O)[C@@H](NC(=O)[C@H](CCN)NC(=O)[C@@H](NC(=O)[C@H](CCN)NC(=O)[C@@H](N)CSCCOC(=O)C(C)(C)C)[C@@H](C)O)CCNC(=O)[C@H]([C@@H](C)O)NC(=O)[C@H](CCN)NC(=O)[C@H](CCN)NC1=O` [Compound 32] (H-C(Ethyl(2-OPiv))[Dab]T[Dab][Dab][Dab][dF]L[Dab][Dab]T; lactam 5-C), for which the “MIC E. coli ATCC MS8345” value against E. coli ATCC MS8345 was determined as 16 µg/mL (≈ 12.4 µM). Moreover, the “MIC A. baumannii ATCC 19606” value against A. baumannii ATCC 19606 amounted to 1 µg/mL (≈ 0.772 µM). Further, the “MIC E. coli ATCC 25922” value against E. coli ATCC 25922 was determined as 0.25 µg/mL (≈ 0.193 µM). Besides, the “MIC P. aeruginosa ATCC 27853” value against P. aeruginosa ATCC 27853 is 1 µg/mL (≈ 0.772 µM). Moreover, the “MIC K. pneumoniae ATCC 33495” value against K. pneumoniae ATCC 33495 turned out to be 0.125 µg/mL (≈ 0.0966 µM). In addition, in test [1], the “MIC K. pneumoniae ATCC 700603” value worked out at 0.5 µg/mL (≈ 0.386 µM). Moreover, the “MIC K. pneumoniae ATCC MS6671” value in test [2] was above 32 µg/mL.
For `CC(C)CCC(=O)OCCSC[C@@H](N)C(=O)N[C@H](C(=O)N[C@@H](CCN)C(=O)N[C@H]1CCNC(=O)[C@H]([C@@H](C)O)NC(=O)[C@H](CCN)NC(=O)[C@H](CCN)NC(=O)[C@H](CC(C)C)NC(=O)[C@@H](Cc2ccccc2)NC(=O)[C@H](CCN)NC1=O)[C@@H](C)O` [Compound 98] (H-[dC](X7)T[Dab][Dab][Dab][dF]L[Dab][Dab]T; lactam 4-C), the “MIC E. coli ATCC MS8345” value with E. coli ATCC MS8345 is 4 µg/mL (≈ 3.31 µM). Also, in the test with A. baumannii ATCC 19606, the “MIC A. baumannii ATCC 19606” value worked out at 2 µg/mL (≈ 1.65 µM). Moreover, the “MIC E. coli ATCC 25922” value in the test on E. coli ATCC 25922 came to 0.5 µg/mL (≈ 0.414 µM). Further, the “MIC P. aeruginosa ATCC 27853” value against P. aeruginosa ATCC 27853 worked out at 1 µg/mL (≈ 0.827 µM). Besides, in the test on K. pneumoniae ATCC 33495, the “MIC K. pneumoniae ATCC 33495” value was 1 µg/mL (≈ 0.827 µM). The “MIC K. pneumoniae ATCC 700603” value in test [1] came out at 1 µg/mL (≈ 0.827 µM). Moreover, in test [2], the “MIC K. pneumoniae ATCC MS6671” value was above 32 µg/mL.
As to `CCC(=O)OCCSC[C@@H](N)C(=O)N[C@@H](CCN)C(=O)N[C@H](C(=O)N[C@@H](CCN)C(=O)N[C@H]1CCNC(=O)[C@H]([C@@H](C)O)NC(=O)[C@H](CCN)NC(=O)[C@H](CCN)NC(=O)[C@H](CC(C)C)NC(=O)[C@@H](Cc2ccccc2)NC(=O)[C@H](CCN)NC1=O)[C@@H](C)O` [Compound 58] (H-[dC](Ethyl(2-propionyloxy))[Dab]T[Dab][Dab][Dab][dF]L[Dab][Dab]T; lactam 5-C), the “MIC A. baumannii ATCC 19606” value in the test with A. baumannii ATCC 19606 is above 32 µg/mL. The “MIC E. coli ATCC 25922” value in the test on E. coli ATCC 25922 turned out to be 2 µg/mL (≈ 1.58 µM). The “MIC P. aeruginosa ATCC 27853” value in the test on P. aeruginosa ATCC 27853 stood at 2 µg/mL (≈ 1.58 µM). Further, the “MIC K. pneumoniae ATCC 33495” value with K. pneumoniae ATCC 33495 came to 2 µg/mL (≈ 1.58 µM). Besides, the “MIC K. pneumoniae ATCC 700603” value in test [1] was 4 µg/mL (≈ 3.16 µM). For the same compound, the “MIC K. pneumoniae ATCC MS6671” value in test [2] is above 32 µg/mL.
For the compound `CCCC(=O)OCCSC[C@@H](N)C(=O)N[C@H](C(=O)N[C@@H](CCN)C(=O)N[C@H]1CCNC(=O)[C@H]([C@@H](C)O)NC(=O)[C@H](CCN)NC(=O)[C@H](CCN)NC(=O)[C@H](CC(C)C)NC(=O)[C@@H](Cc2ccccc2)NC(=O)[C@H](CCN)NC1=O)[C@@H](C)O` [Compound 89] (H-[dC](Ethyl(2-butanoyloxy))T[Dab][Dab][Dab][dF]L[Dab][Dab]T; lactam 4-C), the “MIC E. coli ATCC MS8345” value against E. coli ATCC MS8345 is 32 µg/mL (≈ 27.1 µM). Besides, the “MIC A. baumannii ATCC 19606” value in the test with A. baumannii ATCC 19606 came out at 4 µg/mL (≈ 3.39 µM). Besides, the “MIC P. aeruginosa ATCC 27853” value with P. aeruginosa ATCC 27853 came to 2 µg/mL (≈ 1.69 µM). For the same compound, the “MIC K. pneumoniae ATCC 33495” value against K. pneumoniae ATCC 33495 stood at 1 µg/mL (≈ 0.847 µM). In addition, in test [1], the “MIC K. pneumoniae ATCC 700603” value was found to be 1 µg/mL (≈ 0.847 µM). Besides, in test [2], the “MIC K. pneumoniae ATCC MS6671” value was above 32 µg/mL.
On to `CCCC(=O)OCCSC[C@H](N)C(=O)N[C@@H](CCN)C(=O)N[C@H](C(=O)N[C@@H](CCN)C(=O)N[C@H]1CCCCNC(=O)[C@H]([C@@H](C)O)NC(=O)[C@H](CCN)NC(=O)[C@H](CCN)NC(=O)[C@H](CC(C)C)NC(=O)[C@@H](Cc2ccccc2)NC(=O)[C@H](CCN)NC1=O)[C@@H](C)O` [Compound 24] (H-C(Ethyl(2-butanoyloxy))[Dab]T[Dab]K[Dab][dF]L[Dab][Dab]T; lactam 5-C), for which the “MIC E. coli ATCC MS8345” value in the test on E. coli ATCC MS8345 is above 32 µg/mL. In addition, the “MIC A. baumannii ATCC 19606” value in the test with A. baumannii ATCC 19606 is above 32 µg/mL. Besides, the “MIC E. coli ATCC 25922” value with E. coli ATCC 25922 is 2 µg/mL (≈ 1.53 µM). Besides, the “MIC P. aeruginosa ATCC 27853” value in the test with P. aeruginosa ATCC 27853 is above 32 µg/mL. For the same compound, in the test on K. pneumoniae ATCC 33495, the “MIC K. pneumoniae ATCC 33495” value was determined as 1 µg/mL (≈ 0.764 µM). In addition, the “MIC K. pneumoniae ATCC MS6671” value in test [2] was above 32 µg/mL.
